One may read the Cmax as the highest concentration seen after dosing.

“Also recorded” adds a separate entry of the source. Like-named read-outs stand apart in the source and are kept apart here.

One data set has as its system C4-2 cells. The data set can be described thus: Cell viability by CCK-8. It is filed as cell-based. Conditions: DHT 10 nM, chidamide 0.5 µM and/or enzalutamide 20 µM, 96 h. As to the method:
(§1) FIGURE 5 Chidamide inhibited AR pathway and CRPC progression and in vitro. (A) Effect of chidamide and enzalutamide on cell viability. C4‐2 cells were treated with DHT (10 nM), chidamide (0.5 µM), and/or enzalutamide (20 µM) for 96 h. Cell viability was measured by CCK‐8. […] DHT (10 nM) served as control.
C4‐2 cell line was provided by Prof. Yonghong Li (Sun Yat‐sen University Cancer Center) and validated by short tandem repeat (STR). C4‐2 cells were grown in RPMI 1640 containing 10% FBS.

Data set [1] is described as follows: Chidamide pharmacokinetics in patients (compartmental modeling, Phoenix Winnonlin 7.0). The conditions noted are these: male, human, plasma, mCRPC patients, after first administration; for AUC(0-t): read-out: AUC0–24 h, Mean; for clearance: read-out: CL, Mean (converted); for Vd: read-out: Vss, Mean; for half-life: read-out: t 1/2, Mean (converted). It is filed as in vivo. As to the method:
From patients administered with different doses of chidamide, blood samples were collected in a sodium heparin tube at the time points of 2, 4, 8, 12, and 24 h after the completion of the first administration of chidamide (Day 1) in treatment cycle 1 and cycle 2. PK parameters were estimated from chidamide concentrations measured using […] samples taken at specified time points postdosing, and were analyzed by Phoenix Winnonlin 7.0.

The test system of a further data set is patients with mCRPC. It is filed as in vivo.
For data set [2], the system named is AR downstream genes (PSA, TMPRSS2, SLC45A3) in C4-2 cells. The data set can be described thus: RT-PCR of AR downstream genes. Conditions: chidamide 0.5 µM. It is filed as cell-based. As to the method:
as §1
Total cellular RNA was isolated using EZ‐press RNA Purification Kit (EZBioscience, USA) according to the manufacturer's protocol. For first‐strand cDNA synthesis, 5 µg of total RNA was reverse‐transcribed using the PrimeScript RT Master Mix (Perfect Real Time, TaKaRa Bio, Kusatsu, Japan) followed by quantitative PCR (qPCR) with 2 × Taq Master Mix (Vazyme Biotech Co., Ltd, China) according to the manufacturer's instructions. Real‐time PCR analyses were conducted using the Biorad CFX96 system and the appropriate primers to estimate the mRNA expression. The primer sequences were as follows: for PSA, forward 5′‐[…]‐3′ and reverse 5′‐[…]‐3′; for TMPRSS2, forward 5′‐[…]‐3′ and reverse 5′‐[…]‐3′; for SLC45A3, forward 5′‐[…]‐3′ and reverse 5′‐[…]‐3′; for GAPDH, forward 5′‐[…]‐3′ and reverse 5′‐[…]‐3′.

In data set [3] the test system is chemotherapy-naïve mCRPC patients. Details: method as in PMID 19608618. The conditions noted are these: cited from earlier work.

Description for patients with mCRPC: Chidamide was tested in three dose groups (20 mg, 25 mg, 30 mg). The starting dose was 20 mg per dose, administered twice a week, with a treatment cycle lasting 4 weeks. Dosing occurred on fixed days of each week, with two doses administered on the same day each week for the duration of the 4‐week cycle. Three participants are enrolled in each dosage group. If no DLT occurred during the first treatment cycle, the dose was escalated and three patients were enrolled at the next dose level. However, if one DLT was observed, three additional patients were added at the same dose level for further assessment. If no new DLTs occur, the study continues to the next dose level. If two or more of the six patients at a given dose level developed a DLT, further dose escalation was halted, and the prior dose level was determined to be the MTD. Abiraterone was combined with the second administration of chidamide on Day 4 of the first cycle. The observation for DLT was in the period of first cycle of treatment. […]

With `Nc1cc(F)ccc1NC(=O)c1ccc(CNC(=O)/C=C/c2cccnc2)cc1` [chidamide, Chidamide], the Cell viability entry with C4-2 cells was “effectively inhibits the cell viability”. Moreover, in data set [1] (20 mg (N = 4)), the peak level (Cmax) was 0.0792 µg/mL, the AUC(0-t) came out at 1.33 µg·h/mL, the clearance is 170 mL/min and the Vd is 207 L. Further, the half-life in data set [1] (20 mg (N = 4)) is 13.9 h. Moreover, in data set [1] (25 mg (N = 11)), the highest level (Cmax) was 0.0912 µg/mL, the AUC(0-t) was determined as 1.16 µg·h/mL, the clearance is 260 mL/min and the Vd worked out at 326 L. Further, the half-life in data set [1] (25 mg (N = 11)) is 13.6 h. Moreover, in data set [1] (30 mg (N = 3)), the Cmax was 0.296 µg/mL, the AUC(0-t) is 2.86 µg·h/mL, the clearance is 188 mL/min and the Vd amounted to 132 L. For the same compound, the half-life in data set [1] (30 mg (N = 3)) is 8.06 h. Besides, the “Chidamide-related SAEs” value in the data set with patients with mCRPC (all 18 patients) was “No chidamide‐related SAEs were observed”. Also, the “Dose-limited toxicity (DLT)” value in the data set on patients with mCRPC (dose escalation 20, 25, 30 mg chidamide, first cycle) was “none of the patients experienced a DLT”. Also, in data set [2], the “Relative mRNA expression of PSA” value was “significantly downregulated; also recorded: decreased”, the “Relative mRNA expression of SLC45A3” value is recorded as “significantly downregulated; also recorded: decreased” and the “Relative mRNA expression of TMPRSS2” value is given as “significantly downregulated; also recorded: decreased”.

On to `C/C=C1\NC(=O)[C@H]2CSSCC/C=C/[C@H](CC(=O)N[C@H](C(C)C)C(=O)N2)OC(=O)[C@H](C(C)C)NC1=O` [romidepsin], for which the “Time to progression (TTP)” value in data set [3] is reported as 1.8 months.

The values are drawn from paper PMC12587161, “Chidamide (a Histone Deacetylase Inhibitor) Plus Abiraterone in Metastatic Castration‐Resistant Prostate Cancer (mCRPC): A Phase Ib Trial” (MedComm, 2025).
